Results published in paper PMC10891143, “Quantitative live cell imaging of a tauopathy model enables the identification of a polypharmacological drug candidate that restores physiological microtubule interaction” (Nature Communications, 2024).
pIC50: −log10 of the molar value.

Assays:
[1] = molecular target: T1, Tau (recombinant human tau, Tau441wt) (Homo sapiens, UniProt P10636); assay: heparin-induced aggregation, ultracentrifugation sedimentation assay; assay type: biochemical; conditions: 20 µM PHOX15 (significant, p = 0.0494), 24 h, 37 °C, pH 7.4, 200 µg/ml heparin, 1% DMSO
T1 construct: gene MAPT; full-length Tau441, pET-3d, E. coli BL21(DE3)pLysS; anion exchange and phosphocellulose chromatography

[2] = molecular target: T2, Tau (recombinant human tau, Tau441wt) (Homo sapiens, UniProt P10636, DEL125-375/DEL395-460/DEL597-597); assay: as above; assay type: biochemical; conditions: 2-20 µM PHOX15, 24 h, 37 °C, pH 7.4, 200 µg/ml heparin, 1% DMSO
T2 construct: gene MAPT; full-length Tau441, pET-3d, E. coli BL21(DE3)pLysS; anion exchange and phosphocellulose chromatography

[3] = molecular target: T3, PAGFP-Tau / PAGFP-TauΔK280 (Homo sapiens, UniProt P10636, DEL125-375/DEL395-460/DEL597-597); assay: FDAP live-cell imaging, effective diffusion constant of tau (restored microtubule binding); assay type: cell-based
T3 construct: gene MAPT
Source text: FDAP live-cell imaging, effective diffusion constant of tau (restored microtubule binding) on PAGFP-Tau / PAGFP-TauΔK280 | IC50 value of the activity of PHOX15 to restore microtubule binding of TauΔK280, obtaining

T1 sequence (P10636 1-441 isoform P10636-8): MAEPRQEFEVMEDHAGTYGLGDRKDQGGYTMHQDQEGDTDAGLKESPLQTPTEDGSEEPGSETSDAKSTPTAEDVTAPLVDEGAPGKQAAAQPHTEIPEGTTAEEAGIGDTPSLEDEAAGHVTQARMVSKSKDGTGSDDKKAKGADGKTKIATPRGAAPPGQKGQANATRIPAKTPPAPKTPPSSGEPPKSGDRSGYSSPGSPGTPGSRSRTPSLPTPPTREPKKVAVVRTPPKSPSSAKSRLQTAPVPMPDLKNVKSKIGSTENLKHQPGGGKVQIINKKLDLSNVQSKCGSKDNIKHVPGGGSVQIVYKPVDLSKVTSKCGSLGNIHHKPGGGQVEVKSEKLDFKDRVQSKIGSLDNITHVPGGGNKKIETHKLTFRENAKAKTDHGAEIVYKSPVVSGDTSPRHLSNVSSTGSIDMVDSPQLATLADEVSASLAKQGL
T2 sequence (P10636 with tags, fused parts or gaps DEL125-375/DEL395-460/DEL597-597): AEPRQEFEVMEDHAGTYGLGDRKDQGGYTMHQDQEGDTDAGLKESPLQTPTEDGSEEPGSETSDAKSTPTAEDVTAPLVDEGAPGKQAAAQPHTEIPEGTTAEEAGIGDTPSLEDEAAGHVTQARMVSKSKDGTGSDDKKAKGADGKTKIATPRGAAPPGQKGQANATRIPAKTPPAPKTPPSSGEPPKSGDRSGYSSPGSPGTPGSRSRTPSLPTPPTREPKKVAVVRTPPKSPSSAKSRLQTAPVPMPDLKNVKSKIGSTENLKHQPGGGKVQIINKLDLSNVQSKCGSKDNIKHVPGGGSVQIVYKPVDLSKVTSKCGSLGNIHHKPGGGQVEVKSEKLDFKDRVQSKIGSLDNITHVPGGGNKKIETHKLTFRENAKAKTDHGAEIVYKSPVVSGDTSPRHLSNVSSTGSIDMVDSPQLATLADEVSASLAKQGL
T3 sequence (P10636 with tags, fused parts or gaps DEL125-375/DEL395-460/DEL597-597): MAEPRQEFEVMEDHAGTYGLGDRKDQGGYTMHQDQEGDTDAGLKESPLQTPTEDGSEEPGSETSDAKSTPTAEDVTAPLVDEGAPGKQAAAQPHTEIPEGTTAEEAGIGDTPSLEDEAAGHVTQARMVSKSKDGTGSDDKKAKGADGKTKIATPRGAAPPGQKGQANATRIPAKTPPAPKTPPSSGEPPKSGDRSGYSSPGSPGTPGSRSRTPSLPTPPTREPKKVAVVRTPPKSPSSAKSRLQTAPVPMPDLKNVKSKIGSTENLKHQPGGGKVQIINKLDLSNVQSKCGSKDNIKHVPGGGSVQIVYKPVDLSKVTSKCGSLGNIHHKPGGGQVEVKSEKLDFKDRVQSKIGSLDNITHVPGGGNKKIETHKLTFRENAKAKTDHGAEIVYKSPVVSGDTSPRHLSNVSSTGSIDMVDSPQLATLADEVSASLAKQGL

In the case of O=C(Nc1ccccc1)c1coc(-c2ccc(O)cc2O)n1 [PHOX15, 2-(2,4-dihydroxyphenyl)-N-phenyloxazole-4-carboxamide], the “fraction of aggregated tau” value [1] was “PHOX15 decreases aggregation of recombinant TauΔK280 and human wild-type tau (Tau) in vitro”, the “% reduction of filament formation” value [2] was ~ 20% and the pIC50 [3] was 4.85.
